Results published in patent publication US6004959A, “Alkyloxyamino substituted fluorenones and their use as protein kinase-C inhibitors” (Hoechst Marion Roussel, Inc., priority 1997, dated 1999).
Where a name gives a salt, the structure may show the parent alone.

Molecular target: Protein kinase C (PKC)
Assay: Protein kinase C assay (96-well, H1 histone phosphorylation, 32P-ATP)
Type: biochemical
Details: PKC partially purified from rat brain; H1 histone 200 μg, 50 μM ATP, 5-7 min, room temperature; estimated error of IC50 less than 10%
Method: Protein kinase C (PKC) was partially purified from the cytosol of rat brains as described by […]., Thromb. Res. 44:649-660, 1986. After removing the brains, all manipulations were carried out at 4° C. Briefly, the cerebellum was removed from 8-10 rat brains and each brain was then homogenized in 9 ml sucrose/EDTA (0.32 M sucrose, 1 mM EDTA, 5 mM Tris, pH 7.4). The pooled homogenate was then centrifuged at 1000×g for 10 min at 4° C., the pellet resuspended in the same volume of fresh sucrose/EDTA and recentrifuged at 1000×g for 10 min. at 4° C. The supernatants from each of these spins was pooled and centrifuged at 25,700×g for 30 min. at 4° C., and the resulting pellet homogenized in 20 ml of buffer A. (20 mM Tris pH 7.5, 0.1 mM calcium chloride, 0.4 mM leupeptin), at 4° C. Membrane associated PKC was then pelleted by centrifugation at 45,700×g at 4° C. for 15 min. and resuspended in 20 ml of buffer A. This step was repeated for a total of 3 centrifugations, discarding the supernatants and finally resuspending the pellet in 20 ml of buffer B (20 mM Tris pH 7.5, 1 mM EGTA, 1 mM EDTA, and 0.01 mM leupeptin) and stirring on ice for 30 min. Disassociated PKC was then collected by centrifuging at 45,700×g at 4° C. for 15 min. The pellet was discarded and the supernatant centrifuged at 100,000×g at 4° C. for 60 min. The pellet was again discarded and the supernatant was adjusted to remove all EDTA and EGTA by adding sufficient volume of a stock solution containing 100 mM each CaCl2 and MgCl2 to give a final concentration of 1 mM Ca^++ and 1 mM Mg^++. The resulting slurry was then applied to a 12 cm×1 cm DE-52 (DEAE cellulose, Whatman®) column previously equilibrated with buffer B. […] After washing the column with 70 ml of buffer B to remove unbound proteins, undesired proteins were eluted with 40 ml of buffer B containing 40 mM NaCl and the PKC containing fraction eluted with 20 ml of buffer B containing 150 mM NaCl. The PKC eluate was then concentrated to about 5 ml using an Amicon® ultrafiltration cell fitted with a PM-10 membrane, and excess NaCl removed by adding back 30 ml 5 mM Tris pH 7.4 and reconcentrating to a final volume of about 5 ml. The concentrated and desalted PKC prep was then adjusted to contain 10% glycerol and 0.5% Triton X-100 before aliquoting and storing 200 μL volumes at -70° C. Frozen preps were stable for at least 3 months at -70°0 C. Protein kinase C was assayed using a semi-automated 96-well plate procedure based upon the procedures of Aftab and Hait, and […] and Vial (Aftab, D. T. and W. N. Hait., Anal Biochem. 187:84-88. 1990.; […]. and Vial, H. J., Anal Biochem. 184:283-290. 1990). Briefly, each well of a 96 well "u" well microtiter plate received a total of 100 μl assay volume consisting of final concentrations of 30 mM Tris pH 7.4, 10 mM MgSO4, 1 mM EGTA, 200 μg Hl histone (Sigma Type III-S H5505), 50 μM ATP, 0.5 μCi 30 Ci/mmol ^32 P-ATP, and 30 μl PKC extract diluted in 5 mM Tris, pH 7.4 containing 1 mg per ml each of leupeptin, pepstatin and chymastatin, and 1 mM phenylmethylsulfonylfluoride. Reactions were started by adding the PKC extract and stopped by the addition of 50 μl 40% trichloroacetic acid, followed by 25 μl of 50 mM unlabelled ATP and 25 μl of 0.5% bovine serum albumin, and then collected on glass fiber filters using a Skatron® automatic micro cell harvester. Samples were washed for 30 seconds with 5% trichloroacetic acid, dried for 5 seconds on the harvester, and then transferred to scintillation vials for counting and subsequent data analysis. Reactions were run for five to seven minutes at room temperature. Data were fit to a competitive binding curve using the ENZFITTER® program (Biosoft). The error estimated for the IC50 values was less than 10%.

Compound	IC50 [µM]
CN(C)CCCOc1ccc2c(c1)C(=O)c1cccc(OCCCN(C)C)c1-2 [I.D. No. 102,352, 2,5-Bis-(3-dimethylamino-propoxy)-fluoren-9-one]	50
CCN(CC)CCOc1cccc2c1C(=O)c1cccc(OCCN(CC)CC)c1-2 [I.D. No. 104,147, 1,5-Bis[(diethylamino)ethoxy]-fluoren-9-one]	15
CCCOc1cc(OC)c2c(c1N)C(=O)c1cccc(OCCN3CCOCC3)c1-2 [I.D. No. 104,427, 5-[2-(morpholino-4-yl)-ethoxy]-1-amino-4-methoxy-2-propyloxy-fluoren-9-one hydrochloride]	2.3
CCCOc1cc(OC)c2c(c1)C(=O)c1cccc(OCCN3CCOCC3)c1-2 [I.D. No. 104,439, 5-[2-(morpholino-4-yl)-ethoxy]-4-methoxy-2-propyloxy-fluoren-9-one hydrochloride]	> 10
CCN(CC)CCOc1cccc2c1-c1c(OCCN(CC)CC)cccc1C2=O [I.D. No. 104,488]	92
CCN(CC)CCOc1cccc2c1-c1c(OC)cccc1C2=O [I.D. No. 104,652, 4-(2-diethylamino-ethoxy)-5-methoxy-fluoren-9-one]	1
CCN(CC)CCOc1cccc2c1-c1c(OC)cc(OC)c(N)c1C2=O [I.D. No. 105,473, 1-Amino-5-(2-diethylamino-ethoxy)-2,4-dimethoxy-fluoren-9-one hydrochloride]	0.16
CCCOc1cc(OC)c2c(c1N)C(=O)c1cccc(OCCN(CC)CC)c1-2 [I.D. No. 105,509, 1-Amino-5-(2-diethylamino-ethoxy)-4-methoxy-2-propoxy-fluoren-9-one]	0.079
CCN(CC)CCOc1cc(OC)c2c(c1)C(=O)c1cccc(OCCN(CC)CC)c1-2 [I.D. No. 105,711, 2,5-bis-(2-diethylamino-ethoxy)-4-methoxy-fluoren-9-one]	1.1
CCN(CC)CCOc1cccc2c1-c1c(OC)cc(OC)cc1C2=O [I.D. No. 105,950, 5-(2-Diethylamino-ethoxy)-2,4-dimethoxy-fluoren-9-one]	0.9

Results, then the compound that gave them:

IC50 [µM]	Compound
3	CCN(CC)CCOc1ccc2c(c1)C(=O)c1cccc(OCCN(CC)CC)c1-2 [I.D. No. 11,080, 2,5-Bis[(2-diethylamino)ethoxy]-fluoren-9-one]
11	CN(C)CCOc1ccc2c(c1)C(=O)c1cccc(OCCN(C)C)c1-2 [I.D. No. 101,209, 2,5-Bis-(2-dimethylamino-ethoxy)-fluoren-9-one]
9	CCCOc1ccc2c(c1)C(=O)c1cccc(OCCN(CC)CC)c1-2 [I.D. No. 103,049, 5-(2-Diethylamino-ethoxy)-2-propoxy-fluoren-9-one]
56	CCN(CC)CCCOc1cccc2c1-c1ccc(OC)cc1C2=O [I.D. No. 103,388, 5-(3-Diethylamino-propoxy)-2-methoxy-fluoren-9-one]
7	CCN(CC)CCOc1cccc2c1-c1ccc(OC)cc1C2=O [I.D. No. 103,949, 5-(2-Diethylamino-ethoxy)-2-methoxy-fluoren-9-one]
4	CCN(CC)CCOc1ccc2c(c1)-c1c(OCCN(CC)CC)cccc1C2=O [I.D. No. 104,004, 3,5-Bis[(2-diethylamino)ethoxy]-fluoren-9-one]
0.576	CCCOc1cc(OC)c2c(c1)C(=O)c1cccc(OCCN(CC)CC)c1-2 [I.D. No. 104,952, 5-(2-diethylamino-ethoxy)-4-methoxy-2-propoxy-fluoren-9-one]
